Holding throughout (assay): fluorescence turn-on, 625 nm
Assay [1] has as its system ssDNAmix (DNA, single strand) ATGCTCAGACTGTCAGAGTC
The settings on record: BPC1 1 μM, oligonucleotide 4 μM; weak fluorescence enhancement.

The test system of assay [2] is NC (RNA, single strand) UUGUACUACACAAAAGUACUG
The settings on record: BPC1 1 μM, oligonucleotide 4 μM; no fluorescence increase.

In assay [3] the test system is ssRNAmix (RNA, single strand) AUGUACCUAGUCUGACCUAG
The following applies: BPC1 1 μM, oligonucleotide 4 μM; no fluorescence increase.

The test system of assay [4] is dsDNAmix (DNA, duplex) CGATAAGCGCTTATCGAGTCGACTCGATAAGCGCTTATCG
The following applies: BPC1 1 μM, oligonucleotide 4 μM; significant fluorescence enhancement.

On to `CC[n+]1c(/C=C/C=C2C=CN(c3ccccc3)C=C2)sc2ccccc21`, for which the binding result in assay [1] is recorded as “weak”; in assay [2] it was “no”; in assay [3], “no”; in assay [4] it was “yes”.
